In brackets after ≈: the same amount, converted by molar mass. Where two headings read alike, the source gives them in different places.
Experiments:
[1] = RP-UHPLC lipophilicity parameter log k’w; type: physicochemical; settings: for log k’w: RP-UHPLC, acetonitrile/water, log k extrapolated to 0% acetonitrile; for logkw: experimental lipophilicity parameter
From the text: Lipophilicity and water solubility of the drug candidates are important parameters as they are often directly related to their ADME properties in the organism. Lipophilicity is usually expressed as the logarithm of the partition coefficient in n-octanol/water (log P). Due to its laborious determination, especially in the HTS screening, other experimental methods such as RP-HPLC log k’w or purely computational approaches such as Clog P were proposed and have been established as reasonable estimators of true lipophilicity. To investigate the changes in lipophilicity upon introduction of oxazole in the title compounds, we determined the log k’w of all derivatives and compared respective values among the pairs.
The log k of the synthesized compounds was measured using the same instrument (single measurement per concentration), software, and column as was used in the purity evaluation. Working solutions were diluted as described above for purity determination. The log k parameter was calculated after the UHPLC measurements using isocratic mode with mobile phase acetonitrile (B)/water (A) in a set of concentrations of 40, 45, 50% and 20, 30, 40% B for subtype I and subtype II, respectively.

[2] = tested on: Staphylococcus aureus subsp. aureus CCM 4223 (ATCC 29213); experiment: Antibacterial microdilution broth (EUCAST); type: cell-based; settings: Staphylococcus aureus; 24h incubation; read-out: MIC SA
[3] = tested on: M. avium DSM 44156 (ATCC 25291); experiment: Antimycobacterial MIC, microdilution broth / resazurin; type: cell-based, Mycobacterium avium; settings: for MIC: Mycobacterium avium, read-out: MIC M. avium
[4] = tested on: M. smegmatis DSM 43465 (ATCC 607); experiment: as above; type: cell-based; settings: Mycolicibacterium smegmatis, read-out: MIC M. smegmatis
[5] = tested on: Aspergillus fumigatus ATCC 204305; experiment: Antifungal microdilution broth (EUCAST); settings: Aspergillus fumigatus, ATCC204305, 24 h, read-out: MIC AF
[6] = tested on: M. kansasii DSM 44162 (ATCC 12478); experiment: Antimycobacterial MIC, microdilution broth / resazurin; type: cell-based; settings: Mycobacterium kansasii, read-out: MIC M. kansasii
[7] = tested on: Mycobacterium tuberculosis H37Ra ITM-M006710 (ATCC 9431); experiment: Antimycobacterial MIC, microdilution broth / Alamar Blue (resazurin); type: cell-based; settings: Mycobacterium tuberculosis, 120 h, Middlebrook 7H9, resazurin after 120 h; read-out: Mtb H37Ra MIC
[8] = tested on: Staphylococcus aureus subsp. aureus (MRSA) CCM 4750 (ATCC 43300); experiment: Antibacterial microdilution broth (EUCAST); type: cell-based; settings: Staphylococcus aureus; 24h incubation; read-out: MIC MRSA
[9] = tested on: Acinetobacter baumannii DSM 30007 (ATCC 19606); experiment: Antibacterial microdilution broth (EUCAST); type: cell-based; settings: Acinetobacter baumannii; 24h incubation; read-out: MIC AB
[10] = tested on: Escherichia coli CCM 3954 (ATCC 25922); experiment: Antibacterial microdilution broth (EUCAST); type: cell-based; settings: Escherichia coli; 24h incubation; read-out: MIC EC
[11] = tested on: Lichtheimia corymbifera CCM 8077; experiment: Antifungal microdilution broth (EUCAST); settings: Lichtheimia corymbifera, CCM8077, 24 h, read-out: MIC LC
[12] = tested on: Candida parapsilosis CCM 8260 (ATCC 22019); experiment: Antifungal microdilution broth (EUCAST); settings: Lodderomyces parapsilosis, 24 h, read-out: MIC CP
[13] = tested on: Aspergillus flavus CCM 8363; experiment: Antifungal microdilution broth (EUCAST); settings: Aspergillus flavus, CCM8363, 24 h, read-out: MIC AFla
[14] = tested on: Candida tropicalis CCM 8264 (ATCC 750); experiment: Antifungal microdilution broth (EUCAST); settings: Candida tropicalis, 24 h, read-out: MIC CT
[15] = tested on: Trichophyton interdigitale CCM 8377 (ATCC 9533); experiment: Antifungal microdilution broth (EUCAST); settings: Trichophyton interdigitale, 72 h, read-out: MIC TI
[16] = tested on: Enterococcus faecalis CCM 4224 (ATCC 29212); experiment: Antibacterial microdilution broth (EUCAST); type: cell-based; settings: Enterococcus faecalis; 24h incubation; read-out: MIC EF
[17] = tested on: Candida albicans CCM 8320 (ATCC 24433); experiment: Antifungal microdilution broth (EUCAST); settings: Candida albicans, 24 h, read-out: MIC CA
[18] = tested on: Pseudomonas aeruginosa CCM 3955 (ATCC 27853); experiment: Antibacterial microdilution broth (EUCAST); type: cell-based; settings: Pseudomonas aeruginosa; 72h incubation; read-out: MIC PA
[19] = tested on: M. aurum DSM 43999 (ATCC 23366); experiment: Antimycobacterial MIC, microdilution broth / resazurin; type: cell-based; settings: Mycolicibacterium aurum, read-out: MIC M. aurum
[20] = tested on: Candida krusei CCM 8271 (ATCC 6258); experiment: Antifungal microdilution broth (EUCAST); settings: Pichia kudriavzevii, 24 h, read-out: MIC CK
[21] = tested on: Staphylococcus epidermidis CCM 4418 (ATCC 12228); experiment: Antibacterial microdilution broth (EUCAST); type: cell-based; settings: Staphylococcus epidermidis; 24h incubation; read-out: MIC SE
HepG2 cells = experiment: HepG2 cytotoxicity screening (CellTiter 96); type: cell-based, human; settings: Homo sapiens, HepG2, 24 h, 24 h incubation, CellTiter 96; * above highest tested concentration; ** limited by insolubility in medium

| SMILES | log k’w [1] | logkw [1] | MIC [2] [µM] | MIC ([4]; resazurin after 48 h) [µg/mL] | MIC [5] [µM] | MIC [7] [µg/mL] | MIC [8] [µM] | MIC [9] [µM] | MIC [10] [µM] | MIC [11] [µM] | melting point [°C] | MIC [12] [µM] | MIC [13] [µM] | MIC [14] [µM] | MIC [15] [µM] | MIC [16] [µM] | MIC [17] [µM] | MIC [18] [µM] | MIC [20] [µM] | MIC [21] [µM] | also measured |
| --- | --- | --- | --- | --- | --- | --- | --- | --- | --- | --- | --- | --- | --- | --- | --- | --- | --- | --- | --- | --- | --- |
| O=C(Nc1ncco1)c1cnc(Cl)cn1 [Compound 9b] | 0.958 | 0.958 | > 500 | 62.5 (≈ 278 µM) | 500 (≈ 112 µg/mL) | 31.2 (≈ 139 µM) | > 500 | > 500 | > 500 | 500 (≈ 112 µg/mL) | 160 to 164 | 500 (≈ 112 µg/mL) | > 500 | > 500 | 62.5 (≈ 14 µg/mL) | > 500 | 250 (≈ 56.2 µg/mL) | > 500 | 250 (≈ 56.2 µg/mL) | > 500 | MIC ([3]; 96 h): 31.2 µg/mL (≈ 139 µM); MIC ([6]; resazurin after 96 h): < 3.91 µg/mL; MIC ([19]; resazurin after 72 h): 15.6 µg/mL (≈ 69.6 µM) |
| Cc1cc(C(=O)Nc2nc(-c3ccccc3)cs2)cc(Cl)n1 [Compound 16a] | 3.314 | 3.314 | > 500 |  | > 125 | 7.81 (≈ 23.7 µM) | > 500 | > 500 | > 500 | > 125 | 92 to 96 | > 125 | > 125 | > 125 | > 125 | > 500 | > 125 | > 500 | > 125 | > 500 | MIC ([3]; 96 h): 7.81 µg/mL (≈ 23.7 µM); MIC ([4]; 48 h): 7.81 µg/mL (≈ 23.7 µM); MIC ([6]; resazurin after 96 h): 3.91 µg/mL (≈ 11.9 µM); MIC ([19]; resazurin after 72 h): 15.6 µg/mL (≈ 47.4 µM) |
| Cc1cc(C(=O)Nc2nc(-c3ccccc3)co2)cc(Cl)n1 [Compound 16b] | 2.251 | 2.251 | 62.5 (≈ 19.6 µg/mL) | 31.2 (≈ 99.6 µM) | > 125 | 15.6 (≈ 49.8 µM) | 62.5 (≈ 19.6 µg/mL) | > 125 | > 125 | > 125 | 83 to 86 | > 125 | > 125 | > 125 | 62.5 (≈ 19.6 µg/mL) | > 125 | > 125 | > 125 | > 125 | 125 (≈ 39.2 µg/mL) | MIC ([3]; resazurin after 96 h): 7.81 µg/mL (≈ 24.9 µM); MIC ([6]; 96 h): 15.6 µg/mL (≈ 49.8 µM); MIC ([19]; resazurin after 72 h): 7.81 µg/mL (≈ 24.9 µM) |
| O=C(Nc1nc(-c2ccccc2)co1)c1cnc2ccccc2n1 [Compound 19b] | 2.465 | 2.465 | > 500 | ≥ 500 | > 125 | ≥ 500 | > 500 | > 500 | > 500 | > 125 | 181 to 183 | > 125 | > 125 | > 125 | > 125 | > 500 | > 125 | > 500 | > 125 | > 500 | MIC ([3]; resazurin after 96 h): 7.81 µg/mL (≈ 24.7 µM); MIC M. avium ([3]; resazurin after 96 h): strongly active; MIC ([6]; resazurin after 96 h): 3.91 µg/mL (≈ 12.4 µM); MIC ([19]; resazurin after 72 h): ≥ 500 µg/mL |
| O=C(Nc1nc(-c2ccccc2)co1)c1ccncc1 [Compound 13b] | 1.163 | 1.163 | 500 (≈ 133 µg/mL) | 125 (≈ 471 µM) | > 500 | 31.2 (≈ 118 µM) | > 500 | > 500 | > 500 | > 500 | 168 to 171 | > 500 | > 500 | > 500 | 500 (≈ 133 µg/mL) | > 500 | > 500 | > 500 | > 500 | 125 (≈ 33.2 µg/mL) | IC50 (HepG2 cells): 879 µM; MIC ([19]; 72 h): 31.2 µg/mL (≈ 118 µM) |
| O=C(Nc1ncco1)c1cnc2ccccc2n1 [Compound 10b] | 1.493 | 1.493 | 500 (≈ 120 µg/mL) | 62.5 (≈ 260 µM) | 500 (≈ 120 µg/mL) | 15.6 (≈ 65 µM) | > 500 | > 500 | > 500 | 500 (≈ 120 µg/mL) | 163 to 165 | 500 (≈ 120 µg/mL) | > 500 | 500 (≈ 120 µg/mL) | 250 (≈ 60.1 µg/mL) | > 500 | 500 (≈ 120 µg/mL) | > 500 | 250 (≈ 60.1 µg/mL) | 500 (≈ 120 µg/mL) | IC50 (HepG2 cells): > 1000 µM; MIC ([19]; 72 h): 15.6 µg/mL (≈ 65 µM) |
